Measured values from patent publication US20190307754A1, “PDE9 INHIBITORS FOR TREATMENT OF PERIPHERAL DISEASES” (IMARA, INC., priority 2016, published 2019).

Key:
[1] = test system: CYP3A4; experiment: CYP induction, CYP3A4; format: in vitro ADME
[2] = test system: K562 erythroleukemic cells; experiment: HbF in cultured K562 cells; format: cell-based; settings: 3 days
Experimental: K562 cells were cultured at 37° C. in IMDM® to which the required concentrations of test items or DMSO (negative control) had been added. Plated cells were maintained at 37° C. for 3 days at the end of which the presence of HbF within cells was detected by flow cytometry.

[3] = test system: TNF-α activated endothelium; experiment: Micro-channel assay of platelet, PMN and RBC binding (FIG. 10); format: cell-based, human; settings: bound cells at 30 min
Experimental: In another assay, using the same method, the reduction of PMN and RBC bindings to TNF-α activated endothelium in a micro channel well was confirmed. Platelet, PMN, and RBC in blood samples from 5 healthy normal volunteers (donors) were labelled with fluorescent dyes. The blood samples were incubated with Compound P3.1 for 2 hours or 3 hours, or HU for 3 hours, prior to running them on micro channels that were previously coated with endothelial cells activated with TNF-α. The % of bound cells was quantified at 30 min. Results are shown in FIG. 10A, FIG. 10B, and FIG. 10C.

[4] = test system: Berkeley sickle cell transgenic mice; experiment: HbF positive and sickled red blood cells in Berkeley sickle cell transgenic mice; format: in vivo; settings: 30 mg/kg/day Compound P3.1 or 100 mg/kg/day HU, gavage, 30 days
Experimental: This study assessed the effects of chronic dosing (30 day) of Compound P3.1 and HU on HbF and cell sickling in a mouse model of sickle cell disease. Berkeley sickle cell transgenic mice (Hbatm1PazHbbtm1Tow Tg(HBA-HBBs)41Paz/J) were divided into groups of 7 to 8 animals and were dosed once daily, by gavage, for 30 days with either vehicle (PEG:water), 30 mg/kg/day of Compound P3.1, or 100 mg/kg/day of HU. This mouse genotype mimics the genetic, hematologic and histopathologic features that are found in humans afflicted with sickle cell anemia, including irreversibly sickled RBCs, anemia and multi-organ pathology. Blood was collected from treated animals on Day 30 for limited routine hematology as well as derivation of the percent of sickled and HbF positive RBCs and total bilirubin. At termination, the spleen was removed and weighed.

[5] = test system: K562 erythroleukemic cells; experiment: cGMP in cultured K562 cells; format: cell-based; settings: 16 hours
Experimental: Hydroxyurea was included as a comparator as it is currently the only FDA approved treatment for this disease (Charache et al., N Engl J Med., 332(20):1317-22. (1995)). One of the proposed mechanisms of action of HU in SCD is that it may generate NO and modulation of intracellular levels of the NO second messenger, cGMP, may represent an effective and cell-specific approach for amplifying intracellular NO-dependent signaling.
K562 cells were cultured at 37° C. in IMDM® to which the required concentrations of test items or dimethyl sulfoxide (DMSO; negative Control) had been added. Plated cells were maintained at 37° C. for 16 hours at the end of which the amount of cGMP was detected by enzyme immunoassay.

[6] = Plasma protein binding, dog; format: in vitro ADME; settings: read-out: mean plasma fraction bound (converted)
[7] = Stability study of drug substance (ambient and 40-45 °C); format: physicochemical; settings: ambient temperature and 40° C.−45° C., 3-month period
Experimental: A stability study has been completed on Compound P3.1. Samples of Compound P3.1 were aliquoted into double-walled polyethylene pouches, which were tied off and then heat-sealed in an aluminum pouch. Samples were stored at ambient temperature and at 40° C.−45° C. (no humidity control) with testing performed over a 3-month period.

[8] = test system: conscious dogs; experiment: Cardiovascular study in beagle dogs; format: in vivo, dog
Experimental: The safety pharmacology assessment of Compound P3.1 included an in vitro hERG assay, neurofunctional and respiratory studies in rats, and a cardiovascular study in beagle dogs.
In a cardiovascular study conducted in 4 dogs, treatments were performed by oral gavage according to a crossover design after allowing a minimum washout period of 48 hours. In conscious dogs, Compound P3.1 at doses of 10 and 25 mg/kg had no effect on arterial blood pressure, heart rate, body temperature, cardiac conduction times, ventricular repolarization duration, QT variability, or ST segment.

[9] = Bacterial reverse mutation assay; format: cell-based
Source text: The genotoxicity evaluation of Compound P3.1 consisted of a bacterial reverse mutation assay, a chromosome aberration study, and a in vivo rat micronucleus study. Compound P3.1 was negative in all 3 assays.

[10] = molecular target: PDE9 (Homo sapiens, UniProt O76083); experiment: PDE9 inhibition assay; format: biochemical
Experimental: Reactions are initiated by addition of the cyclic nucleotide substrate, and reactions are allowed to proceed for one hr at room temperature before being terminated through mixing with 15 uL 8 mg/mL yttrium silicate SPA beads (Amersham).
Following a 1 hour incubation the reactions were terminated by addition of 15 uL 8 mg/mL yttrium silicate SPA beads (Amersham). […] IC50 values were calculated by nonlinear regression using XLfit (IDBS).

[11] = test system: 7 key CYP enzyme isoforms; experiment: CYP enzyme inhibition in human liver microsomes; settings: up through 100 μM
[12] = Plasma protein binding, humans; format: in vitro ADME; settings: human, read-out: mean plasma fraction bound (converted)
[13] = Pharmacokinetics of single oral and IV dose in Sprague Dawley rats; format: in vivo
Experimental: Blood samples were taken at 2 minutes (IV only), then 8, 15, 30 minutes, and 1, 2, 4, 8, and 24 hours after dosing and analyzed for key PK parameters. In the rats, brain samples were taken at 24 hours and analyzed for Compound P3.1. To evaluate the penetration of Compound P3.1 across the blood-brain barrier (BBB), 10 additional rats received IV Compound P3.1 3 mg/kg and plasma and brain concentrations of Compound P3.1 were determined from 2 animals at 15 minutes, 30 minutes and 1, 2, and 4 hours after dosing.

[14] = Sprague Dawley rats, 10 mg/kg oral
[15] = rat, blood, Sprague Dawley rats, 3 mg/kg IV
[16] = rat, blood, Sprague Dawley rats, 10 mg/kg oral

PDE9, sequence (O76083 whole entry): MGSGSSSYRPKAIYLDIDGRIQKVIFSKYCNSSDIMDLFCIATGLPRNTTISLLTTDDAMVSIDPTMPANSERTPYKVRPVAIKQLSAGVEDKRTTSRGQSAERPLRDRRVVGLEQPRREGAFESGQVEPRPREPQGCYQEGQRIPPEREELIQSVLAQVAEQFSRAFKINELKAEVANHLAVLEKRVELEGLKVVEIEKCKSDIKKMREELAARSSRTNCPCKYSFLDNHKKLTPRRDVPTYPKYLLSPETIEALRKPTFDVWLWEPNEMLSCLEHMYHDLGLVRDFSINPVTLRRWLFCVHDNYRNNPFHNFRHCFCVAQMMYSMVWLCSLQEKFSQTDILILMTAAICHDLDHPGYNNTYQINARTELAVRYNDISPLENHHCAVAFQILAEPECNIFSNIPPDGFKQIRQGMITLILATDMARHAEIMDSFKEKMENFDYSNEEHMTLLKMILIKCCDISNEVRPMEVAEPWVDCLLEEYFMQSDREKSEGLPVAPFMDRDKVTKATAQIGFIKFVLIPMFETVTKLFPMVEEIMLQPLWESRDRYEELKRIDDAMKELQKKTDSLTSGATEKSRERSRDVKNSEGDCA

C[C@@H]1CN(Cc2ncccn2)C[C@H]1c1cn2c(C3CCOCC3)ncc2c(=O)[nH]1 (single isomer, unassigned) [Compound P3.1]
induction of CYP3A4 [1]: potential for induction
HbF positive cells ([2]; 1 μM): 68.7%
HbF positive cells ([2]; 3 μM): 75.6%
HbF positive cells ([2]; 10 μM): 85.6%
platelet binding ([3]; Compound P3.1 2 or 3 hours, HU 3 hours): did not impact platelet binding
PMN adhesion to endothelial cells ([3]; blood incubated 2 or 3 hours): reduced
RBC adhesion to endothelial cells ([3]; blood incubated 2 or 3 hours): reduced
RBC count, hemoglobin concentration or hematocrit [4]: not associated with any apparent alterations
neutrophil levels [4]: reduced neutrophil levels
spleen weight [4]: statistically significant decreases
total bilirubin [4]: statistically significant decreases
total leucocyte count [4]: statistically significant decreases
percentage of HbF positive RBCs ([4]; vs controls): increases in the percentage of HbF positive RBCs
percentage of sickled RBCs ([4]; vs controls): statistically significant decreases in the percentage of sickled RBCs
cGMP concentration at 1 μM compared with 100 μM HU ([5]; 1 μM): approximately the same value elicited by 100 μM HU
cGMP level ([5]; 10 μM): 12.61 pg/mg
effect on cGMP levels [5]: dose-dependent and statistically significant increases in cGMP levels
fraction unbound [6]: 0.771
stability: appearance and purity of drug substance [7]: no changes to appearance or purity
cardiovascular effects ([8]; oral gavage 75 mg/kg): induced tachycardia as well as a slight, progressive and delayed decrease in blood pressure and shortened conduction times
arterial blood pressure, heart rate, body temperature, conduction times, repolarization, QT variability, ST segment ([8]; oral gavage 10 and 25 mg/kg): no effect
genotoxicity, bacterial reverse mutation assay [9]: negative
IC50 [10]: 0.049 µM
direct inhibition of 7 key CYP enzyme isoforms [11]: no potential for direct inhibition
fraction unbound [12]: 0.686
Cl_obs ([13]; Sprague Dawley rats, 3 mg/kg IV): 16.2 mL/min/kg
Flast [13, 14]: 44.6%
Vss obs [13, 14]: 44.6 L/kg
bioavailability ([13]; Sprague Dawley, rat, plasma, po, 10 mg/kg, read-out: oral bioavailability Flast): 63.4%
AUC(0-t) [13, 15]: 3110 ng·h/mL
C0 [13, 15]: 4820 ng/mL
MRT [13, 15]: 1.44 h
half-life [13, 15]: 2.81 h
Vd ([13]; rat, blood, Sprague Dawley rats, 3 mg/kg IV, read-out: Vss obs): 1.65 L/kg
AUC(0-t) [13, 16]: 4620 ng·h/mL
C0 [13, 16]: 1110 ng/mL
Tmax [13, 16]: 1 h
half-life [13, 16]: 3.01 h
continuously exposed out to ([13]; rats, 10 mg/kg oral): 8 h
